Like-named read-outs stand apart in the source and are kept apart here.
Tests used:
Type in all cases: biochemical
Abl = Abl (Homo sapiens, UniProt P00519); assay: Abl kinase assay, IMAP fluorescence polarization; details: 50 or 100 μM ATP; average; read-out: Abl-AVERAGE Ki
Src = Src (Homo sapiens, UniProt P12931); assay: Src kinase assay, IMAP fluorescence polarization; details: 50 or 100 μM ATP; average; read-out: Src-AVERAGE Ki
EPHA2 = EPHA2 (Homo sapiens, UniProt P29317); assay: EPHA2 kinase assay, IMAP fluorescence polarization
SIK3 = SIK3 (Homo sapiens, UniProt Q9Y2K2); assay: SIK3 kinase assay, IMAP fluorescence polarization; details: 50 or 100 μM ATP; average; read-out: SIK3-AVERAGE Ki
SIK2 = SIK2 (Homo sapiens, UniProt Q9H0K1); assay: SIK2 kinase assay, IMAP fluorescence polarization; details: 50 or 100 μM ATP; average; read-out: SIK2-AVERAGE Ki
SIK1 = SIK1 (Homo sapiens, UniProt P57059); assay: SIK1 kinase assay, IMAP fluorescence polarization; details: 50 or 100 μM ATP; average; read-out: SIK1-AVERAGE Ki

Sequence of SIK3 (Q9Y2K2 whole entry): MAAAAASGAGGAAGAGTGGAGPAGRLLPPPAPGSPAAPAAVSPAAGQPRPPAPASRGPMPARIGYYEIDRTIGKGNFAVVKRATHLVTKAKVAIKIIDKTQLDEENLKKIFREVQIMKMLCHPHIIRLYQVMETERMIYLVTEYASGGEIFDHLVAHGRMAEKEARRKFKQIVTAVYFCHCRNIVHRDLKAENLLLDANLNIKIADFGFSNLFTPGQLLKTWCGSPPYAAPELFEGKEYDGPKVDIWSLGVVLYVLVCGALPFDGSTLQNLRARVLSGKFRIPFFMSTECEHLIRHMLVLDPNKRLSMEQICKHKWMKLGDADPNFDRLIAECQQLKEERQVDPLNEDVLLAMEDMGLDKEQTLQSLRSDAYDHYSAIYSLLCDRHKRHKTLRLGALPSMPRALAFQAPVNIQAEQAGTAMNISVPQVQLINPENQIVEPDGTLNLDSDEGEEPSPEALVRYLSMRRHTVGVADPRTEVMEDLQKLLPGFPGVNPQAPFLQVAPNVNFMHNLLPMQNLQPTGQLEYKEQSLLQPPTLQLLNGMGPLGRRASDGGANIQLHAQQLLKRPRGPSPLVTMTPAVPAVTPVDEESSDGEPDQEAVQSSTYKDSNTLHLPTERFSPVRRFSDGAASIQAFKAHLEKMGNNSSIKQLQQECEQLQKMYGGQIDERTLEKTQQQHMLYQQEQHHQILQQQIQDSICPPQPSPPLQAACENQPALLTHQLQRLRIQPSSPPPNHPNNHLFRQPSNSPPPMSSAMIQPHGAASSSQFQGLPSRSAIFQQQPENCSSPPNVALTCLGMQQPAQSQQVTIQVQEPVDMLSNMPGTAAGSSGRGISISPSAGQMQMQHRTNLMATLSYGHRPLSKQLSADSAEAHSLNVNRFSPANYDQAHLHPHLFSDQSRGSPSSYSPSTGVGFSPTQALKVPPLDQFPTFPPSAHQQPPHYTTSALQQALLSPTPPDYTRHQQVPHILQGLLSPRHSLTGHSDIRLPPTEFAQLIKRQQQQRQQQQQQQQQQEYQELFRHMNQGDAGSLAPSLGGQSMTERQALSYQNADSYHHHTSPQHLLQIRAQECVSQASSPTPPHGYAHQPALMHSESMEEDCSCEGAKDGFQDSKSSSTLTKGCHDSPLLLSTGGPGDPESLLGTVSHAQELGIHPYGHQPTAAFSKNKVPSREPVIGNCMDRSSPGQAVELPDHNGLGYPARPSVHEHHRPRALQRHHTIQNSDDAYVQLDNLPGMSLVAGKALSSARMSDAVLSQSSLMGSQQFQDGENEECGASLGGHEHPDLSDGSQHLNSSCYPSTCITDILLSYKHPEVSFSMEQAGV
Sequence of Abl (P00519 whole entry): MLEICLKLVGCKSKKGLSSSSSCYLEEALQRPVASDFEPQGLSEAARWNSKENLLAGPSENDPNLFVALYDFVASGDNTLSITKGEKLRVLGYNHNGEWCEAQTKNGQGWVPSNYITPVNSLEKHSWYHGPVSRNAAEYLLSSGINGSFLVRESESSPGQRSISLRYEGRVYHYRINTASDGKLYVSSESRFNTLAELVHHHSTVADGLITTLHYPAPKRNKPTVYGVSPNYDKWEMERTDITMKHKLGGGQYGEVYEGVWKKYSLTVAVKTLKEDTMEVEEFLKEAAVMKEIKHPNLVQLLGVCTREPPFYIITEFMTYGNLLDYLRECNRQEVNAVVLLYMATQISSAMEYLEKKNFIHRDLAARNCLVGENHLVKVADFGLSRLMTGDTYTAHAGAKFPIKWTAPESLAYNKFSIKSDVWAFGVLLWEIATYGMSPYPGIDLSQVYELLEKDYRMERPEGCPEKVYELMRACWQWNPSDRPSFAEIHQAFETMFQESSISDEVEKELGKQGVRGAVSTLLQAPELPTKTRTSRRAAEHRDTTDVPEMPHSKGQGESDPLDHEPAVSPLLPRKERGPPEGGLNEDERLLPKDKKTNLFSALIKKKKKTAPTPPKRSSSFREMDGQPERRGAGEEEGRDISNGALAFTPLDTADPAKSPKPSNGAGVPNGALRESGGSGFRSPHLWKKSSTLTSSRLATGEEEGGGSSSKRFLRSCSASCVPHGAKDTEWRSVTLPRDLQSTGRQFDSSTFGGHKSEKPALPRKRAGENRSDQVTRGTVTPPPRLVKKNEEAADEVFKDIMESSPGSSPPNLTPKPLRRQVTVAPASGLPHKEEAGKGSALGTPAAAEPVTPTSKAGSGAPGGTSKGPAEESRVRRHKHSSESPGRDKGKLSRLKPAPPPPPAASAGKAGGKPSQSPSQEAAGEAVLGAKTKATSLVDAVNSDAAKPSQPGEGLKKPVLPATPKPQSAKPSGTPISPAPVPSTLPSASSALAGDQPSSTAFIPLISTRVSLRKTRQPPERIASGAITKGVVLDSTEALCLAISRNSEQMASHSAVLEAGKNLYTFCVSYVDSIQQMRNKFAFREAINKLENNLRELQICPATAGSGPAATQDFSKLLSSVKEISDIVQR
Sequence of SIK2 (Q9H0K1 whole entry): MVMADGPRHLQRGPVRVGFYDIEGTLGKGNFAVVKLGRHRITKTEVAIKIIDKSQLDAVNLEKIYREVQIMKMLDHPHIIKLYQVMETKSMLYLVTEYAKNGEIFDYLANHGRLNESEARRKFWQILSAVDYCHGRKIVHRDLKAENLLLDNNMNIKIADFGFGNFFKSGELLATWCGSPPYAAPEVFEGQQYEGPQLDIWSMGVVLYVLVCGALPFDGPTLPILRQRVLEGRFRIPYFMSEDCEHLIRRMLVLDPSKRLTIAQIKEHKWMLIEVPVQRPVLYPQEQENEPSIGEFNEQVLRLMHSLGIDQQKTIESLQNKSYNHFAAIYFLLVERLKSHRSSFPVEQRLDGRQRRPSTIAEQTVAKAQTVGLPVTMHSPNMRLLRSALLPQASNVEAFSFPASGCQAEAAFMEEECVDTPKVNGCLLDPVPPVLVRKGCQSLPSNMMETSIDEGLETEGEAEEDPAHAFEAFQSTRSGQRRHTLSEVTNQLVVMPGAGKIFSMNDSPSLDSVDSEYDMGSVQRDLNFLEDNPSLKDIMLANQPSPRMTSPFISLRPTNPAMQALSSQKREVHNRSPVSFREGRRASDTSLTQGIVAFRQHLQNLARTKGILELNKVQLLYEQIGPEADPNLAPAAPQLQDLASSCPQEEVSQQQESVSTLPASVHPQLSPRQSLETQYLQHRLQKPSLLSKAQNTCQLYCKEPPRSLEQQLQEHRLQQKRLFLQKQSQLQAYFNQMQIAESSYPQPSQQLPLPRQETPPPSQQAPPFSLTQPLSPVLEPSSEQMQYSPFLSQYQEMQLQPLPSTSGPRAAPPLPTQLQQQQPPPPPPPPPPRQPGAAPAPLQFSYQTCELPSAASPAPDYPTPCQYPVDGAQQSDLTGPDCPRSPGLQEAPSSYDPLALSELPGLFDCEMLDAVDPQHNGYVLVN
Sequence of Src (P12931 whole entry): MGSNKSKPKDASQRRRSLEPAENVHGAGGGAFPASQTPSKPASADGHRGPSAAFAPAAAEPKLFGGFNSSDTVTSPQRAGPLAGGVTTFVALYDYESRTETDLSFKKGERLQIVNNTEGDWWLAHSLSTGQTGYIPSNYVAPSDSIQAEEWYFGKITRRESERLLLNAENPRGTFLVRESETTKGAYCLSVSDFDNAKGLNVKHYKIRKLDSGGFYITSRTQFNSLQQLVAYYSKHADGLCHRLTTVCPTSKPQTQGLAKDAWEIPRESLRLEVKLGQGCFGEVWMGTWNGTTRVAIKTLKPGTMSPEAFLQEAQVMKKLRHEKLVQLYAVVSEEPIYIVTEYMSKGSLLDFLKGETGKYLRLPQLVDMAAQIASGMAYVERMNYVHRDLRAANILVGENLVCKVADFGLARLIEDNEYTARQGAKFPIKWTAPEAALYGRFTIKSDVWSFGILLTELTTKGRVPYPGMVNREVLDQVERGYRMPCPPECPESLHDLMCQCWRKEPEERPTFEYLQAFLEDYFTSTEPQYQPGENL
Sequence of EPHA2 (P29317 24-976): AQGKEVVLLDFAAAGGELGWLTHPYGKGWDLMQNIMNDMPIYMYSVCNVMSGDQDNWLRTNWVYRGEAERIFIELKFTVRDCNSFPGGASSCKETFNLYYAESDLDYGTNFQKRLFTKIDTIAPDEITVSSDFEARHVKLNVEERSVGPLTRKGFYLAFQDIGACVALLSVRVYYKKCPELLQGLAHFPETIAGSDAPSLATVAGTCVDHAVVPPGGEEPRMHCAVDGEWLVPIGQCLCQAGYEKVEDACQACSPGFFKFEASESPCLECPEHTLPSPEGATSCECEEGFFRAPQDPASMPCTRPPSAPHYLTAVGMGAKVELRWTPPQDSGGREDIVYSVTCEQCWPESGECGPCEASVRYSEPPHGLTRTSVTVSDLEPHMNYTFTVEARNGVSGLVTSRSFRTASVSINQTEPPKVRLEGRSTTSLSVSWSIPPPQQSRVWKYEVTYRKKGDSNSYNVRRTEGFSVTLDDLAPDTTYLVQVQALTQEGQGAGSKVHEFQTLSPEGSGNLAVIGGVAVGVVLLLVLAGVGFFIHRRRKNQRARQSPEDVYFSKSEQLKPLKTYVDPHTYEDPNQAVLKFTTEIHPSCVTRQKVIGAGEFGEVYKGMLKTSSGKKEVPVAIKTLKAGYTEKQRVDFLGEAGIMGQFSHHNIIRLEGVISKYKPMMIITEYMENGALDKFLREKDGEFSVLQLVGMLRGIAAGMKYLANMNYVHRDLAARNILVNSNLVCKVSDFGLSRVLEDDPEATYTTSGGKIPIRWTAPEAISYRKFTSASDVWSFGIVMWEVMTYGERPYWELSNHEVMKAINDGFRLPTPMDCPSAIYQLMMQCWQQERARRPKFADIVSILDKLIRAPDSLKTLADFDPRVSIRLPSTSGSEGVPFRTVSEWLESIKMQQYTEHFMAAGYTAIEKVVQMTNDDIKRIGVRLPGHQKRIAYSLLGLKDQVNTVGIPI

Structure (SMILES) | Ki (Abl) | Ki (Src) | Ki (EPHA2; 50 or 100 μM ATP, average) | Ki (SIK3) | Ki (SIK2) | Ki (SIK1) | Ki (EPHA2)
Cc1cccc(F)c1N1Cc2cnc(N)cc2N([C@H]2CCCN(C)C2)C1=O [Example 82, 7-amino-3-(2-fluoro-6-methyl-phenyl)-1-[(3S)-1-methyl-3-piperidyl]-4H-pyrido[4,3-d]pyrimidin-2-one] | > 1 µM | 0.0827 µM | 0.0545 µM | 0.00589 µM | 0.000498 µM | 0.001 µM | –
Cc1cccc(F)c1N1Cc2cnc(N)nc2N([C@H]2CCCNC2)C1=O [Example 71, 7-amino-3-(2-fluoro-6-methyl-phenyl)-1-[(3S)-3-piperidyl]-4H-pyrimido[4,5-d]pyrimidin-2-one] | 0.104 µM | 0.391 µM | 0.0885 µM | 0.00628 µM | 0.000369 µM | 0.00126 µM | –
Cc1cccc(F)c1N1Cc2cnccc2N([C@H]2CCCCNC2)C1=O [Example 52, 3-(2-fluoro-6-methyl-phenyl)-1-[(3S)-azepan-3-yl]-4H-pyrido[4,3-d]pyrimidin-2-one] | > 10 µM | > 10 µM | 1.52 µM | 0.288 µM | 0.0137 µM | 0.042 µM | –
Cc1cccc(Cl)c1N1Cc2cnc(N)nc2N(C2CN(C)C2)C1=O [Example 23, 7-amino-3-(2-chloro-6-methyl-phenyl)-1-(1-methylazetidin-3-yl)-4H-pyrimido[4,5-d]pyrimidin-2-one] | > 10 µM | 0.55 µM | 0.162 µM | 0.0547 µM | 0.0142 µM | 0.0286 µM | –
Cc1cccc(F)c1N1Cc2cnc(N)nc2N([C@@H]2CCCN(C)C2)C1=O [Example 42, 7-Amino-3-(2-fluoro-6-methyl-phenyl)-1-[(3R)-1-methyl-3-piperidyl]-4H-pyrimido[4,5-d]pyrimidin-2-one] | 0.241 µM | 0.702 µM | 0.0668 µM | 0.014 µM | 0.00152 µM | 0.00324 µM | –
Cc1cccc(F)c1N1Cc2cnc(N)nc2N([C@H]2CC[C@@H](N)CC2)C1=O [Example 74, 7-amino-1-(4-aminocyclohexyl)-3-(2-fluoro-6-methyl-phenyl)-4H-pyrimido[4,5-d]pyrimidin-2-one] | 0.0226 µM | 0.049 µM | 0.0163 µM | 0.00198 µM | 0.000356 µM | 0.00108 µM | –
Cc1cccc(F)c1N1Cc2cnc(N)cc2N([C@H]2CCCNC2)C1=O [Example 49, 7-amino-3-(2-fluoro-6-methyl-phenyl)-1-[(3S)-3-piperidyl]-4H-pyrido[4,3-d]pyrimidin-2-one] | > 1 µM | > 1 µM | – | 0.00321 µM | 0.000473 µM | 0.000878 µM | > 1 µM
Cc1cccc(F)c1N1Cc2cnc(N)nc2N([C@H]2CC[C@H](N(C)C)CC2)C1=O [Example 45, trans-7-Amino-1-[4-(dimethylamino)cyclohexyl]-3-(2-fluoro-6-methyl-phenyl)-4H-pyrimido[4,5-d]pyrimidin-2-one] | 0.0157 µM | 0.0555 µM | 0.0342 µM | 0.000992 µM | 0.000244 µM | 0.000749 µM | –
CN[C@H]1CC[C@H](N2C(=O)N(c3c(C)cccc3F)Cc3cnc(N)cc32)CC1 [Example 64, trans-7-amino-3-(2-fluoro-6-methyl-phenyl)-1-[4-(methylamino)cyclohexyl]-4H-pyrido[4,3-d]pyrimidin-2-one] | 0.0255 µM | 0.0394 µM | 0.0974 µM | 0.00135 µM | 0.000343 µM | 0.000733 µM | –
Cc1cccc(F)c1N1Cc2cnc(N)nc2N(C2CN(C)C2)C1=O [Example 21, 7-amino-3-(2-fluoro-6-methyl-phenyl)-1-(1-methylazetidin-3-yl)-4H-pyrimido[4,5-d]pyrimidin-2-one] | > 10 µM | 2.56 µM | 0.388 µM | 0.0479 µM | 0.0137 µM | 0.0474 µM | –
